Earlier results in US20010049447A1, “Mibefradil analogues and their use” (priority 2000, published 2001).

System: fructose fed rats

## COCC(=O)O[C@]1(CCN(C)CCCc2nc3ccccc3[nH]2)CCc2cc(F)ccc2[C@@H]1C(C)C.Cl.Cl [mibefradil, Methoxyacetic acid 2(S)-[2-[N-[3-(2-benzimidazolyl)propyl]-N-methylamino]ethyl]-6-fluoro-1(S)-isopropyl-1,2,3,4-tetrahydro-2-naphthyl ester dihydrochloride]
  blood pressure: decrease
  hyperinsulinemia: decrease
